Measured values: patent publication US20220177538A1, “CO-AGONISTS AT GLP-1 AND GIP RECEPTORS SUITABLE FOR ORAL DELIVERY” (Novo Nordisk A/S, priority 2020, published 2022)
Where two headings read alike, the source gives them in different places. Starred links: 1 amine or outer side, 2 acyl side, 3 side chain; linkers in the order of their positions; H or OH if unused. Non-standard residues stand in square brackets, D forms with d. Residues, ends and D or L forms follow the SMILES beside them. Groups on a side chain read outwards from the residue. *: point of attachment. C20 diacid = O=C(O)CCCCCCCCCCCCCCCCCCC(=O)*; C18 diacid = O=C(O)CCCCCCCCCCCCCCCCC(=O)*; γGlu = O=C(O)[C@H](CCC(=O)[*:2])N[*:1]; εLys = N[C@@H](CCCCN[*:1])C(=O)[*:2]; Aib = CC(C)(N)C(=O)O

Columns and labels:
human GIP receptor = target: T1, human GIP receptor (Homo sapiens, UniProt P48546); assay: In vitro functional potency, CRE luciferase reporter, whole BHK cells (hGIPR); type: cell-based; details: BHK CRE luc2P hGIPR cells
T1 construct: expressed in transfected cells; host or cells: BHK (parent line BHKTS13), clone BHK CRE luc2P hGIPR
T1 sequence (P48546 22-466): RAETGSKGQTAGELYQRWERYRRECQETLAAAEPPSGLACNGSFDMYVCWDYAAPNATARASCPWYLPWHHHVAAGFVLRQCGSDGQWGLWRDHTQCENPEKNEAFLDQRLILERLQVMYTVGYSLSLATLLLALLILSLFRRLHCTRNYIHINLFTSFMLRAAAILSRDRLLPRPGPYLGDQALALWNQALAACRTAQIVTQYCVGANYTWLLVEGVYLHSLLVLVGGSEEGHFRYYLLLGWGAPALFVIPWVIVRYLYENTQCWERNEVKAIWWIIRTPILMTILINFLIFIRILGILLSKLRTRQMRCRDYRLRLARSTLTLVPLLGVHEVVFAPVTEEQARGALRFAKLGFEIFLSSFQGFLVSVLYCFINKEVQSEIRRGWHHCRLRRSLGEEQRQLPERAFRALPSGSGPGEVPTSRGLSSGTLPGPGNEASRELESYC
Description: (§1) The in vitro functional potency is the measure of target receptor activation in a whole cell assay.
(§2) In vitro functional potency was determined by measuring the response of the target receptor in a reporter gene assay in individual cell lines. […] When the respective receptor is activated, it results in the production of cAMP, which in turn results in expression of the luciferase protein. When assay incubation is completed, luciferase substrate (luciferin) is added resulting in the enzymatic conversion of luciferin to oxyluciferin and producing bioluminescence. The luminescence is measured as the readout for the assay.
(§3) The cells lines used in these assays were BHK cells with BHKTS13 as a parent cell line. The cell lines were derived from a clone containing the CRE luciferase element and were established by further transfection with the respective human receptor to obtain the relevant cell line: BHK CRE luc2P hGLP-1R or BHK CRE luc2P hGIPR. The cells were cultured at 37° C. with 5% CO2 in Cell Culture Medium. They were aliquoted and stored in liquid nitrogen. The cells were kept in continuous culture and were seeded out the day before each assay.
(§4) GLP-1R Cell Culture Medium consisted of DMEM medium with 10% FBS, 500 µg/mL G418, and 300 µg/mL hygromycin. GIPR Cell Culture Medium consisted of DMEM medium with 10% FBS, 400 µg/mL G418, and 300 µg/mL hygromycin. Assay Buffer consisted of DMEM w/o phenol red, 10 mM Hepes, 1× Glutamax. 1% ovalbumin, and 0.1% Pluronic F-68 with the addition of HSA at twice the final assay concentration.
(§5) 1) Cells were plated at 5000 cells/well and incubated overnight in the assay plate. 2) Cells were washed once in DPBS. 3) Stocks of the test compounds and reference compounds in concentrations ranging from […] were diluted 1:150 in Assay Buffer. Compounds were then diluted 1:10 in column 1 of a 96 deep well dilution plate and then carried across the row creating a 3.5 fold, 12 point dilution curve. 4) Assay Buffer (50 μl aliquot) with or without HSA was added to each well in the assay plate. 5) A 50 μl aliquot of compound or blank was transferred from the dilution plate to the assay plate containing the Assay Buffer with or without HSA. 6) The assay plate was incubated for 3 h in a 5% CO2 incubator at 37° C. 7) The cells were washed once with DPBS. 8) A 100 μl aliquot of DPBS was added to each well of the assay plate. 9) A 100 μl aliquot of steadylite plus reagent (light sensitive) was added to each well of the assay plate. 10) Each assay plate was covered with aluminum foil to protect it from light and shaken at 250 RPM for 30 min at room temperature. 11) Each assay plate was read in a microtiter plate reader.
(§6) The data from the microtiter plate reader was first regressed in an Excel in order to calculate the x-axis, log scale concentrations based on the individual test compound's stock concentration and the dilutions of the assay. […] The software performs a non-linear regression (log(agonist) vs response). A minimum of two replicates was measured for each sample. The reported values are averages of the replicates.

human GLP-1 receptor = human GLP-1 receptor (Homo sapiens, UniProt P43220); assay: In vitro functional potency, CRE luciferase reporter, whole BHK cells (hGLP-1R); type: cell-based; parameters: expressed in transfected cells; host or cells: BHK (parent line BHKTS13), clone BHK CRE luc2P hGLP-1R; details: BHK CRE luc2P hGLP-1R cells
Sequence of human GLP-1 receptor (P43220 24-463): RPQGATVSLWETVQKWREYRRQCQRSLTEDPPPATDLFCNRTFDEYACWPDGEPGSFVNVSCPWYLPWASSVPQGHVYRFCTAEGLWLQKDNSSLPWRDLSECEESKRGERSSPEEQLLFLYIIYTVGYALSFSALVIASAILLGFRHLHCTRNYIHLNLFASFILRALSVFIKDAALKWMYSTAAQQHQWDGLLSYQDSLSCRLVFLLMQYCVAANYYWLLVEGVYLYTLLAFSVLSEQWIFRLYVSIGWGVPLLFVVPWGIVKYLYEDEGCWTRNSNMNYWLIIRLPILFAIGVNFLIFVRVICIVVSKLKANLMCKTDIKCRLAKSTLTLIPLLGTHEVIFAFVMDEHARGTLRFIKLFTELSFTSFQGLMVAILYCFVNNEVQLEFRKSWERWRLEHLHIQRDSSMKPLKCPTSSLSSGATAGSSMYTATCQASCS
Description: as §1, §2, §3, §4, §5, §6

[1] = 0% HSA, read-out: hGIPR, CRE Luc 0% HSA EC50
[2] = hGIPR, CRE Luc 1% HSA EC50, 1% HSA
[3] = 0% HSA, read-out: hGLP-1R, CRE Luc 0% HSA EC50
[4] = hGLP-1R, CRE Luc 1% HSA EC50, 1% HSA

SMILES | EC50 (human GIP receptor; [1]) [nM] | EC50 (human GIP receptor; [2]) [nM] | EC50 (human GLP-1 receptor; [3]) [nM] | EC50 (human GLP-1 receptor; [4]) [nM]
CC[C@H](C)[C@H](NC(=O)[C@H](CO)NC(=O)[C@H](Cc1ccc(O)cc1)NC(=O)[C@H](CC(=O)O)NC(=O)[C@H](CO)NC(=O)[C@@H](NC(=O)[C@H](Cc1ccccc1)NC(=O)[C@@H](NC(=O)CNC(=O)[C@H](CCC(=O)O)NC(=O)C(C)(C)NC(=O)[C@@H](N)Cc1ccc(O)cc1)[C@@H](C)O)[C@@H](C)O)C(=O)N[C@@H](Cc1ccc(O)cc1)C(=O)N[C@@H](CC(C)C)C(=O)N[C@@H](CCC(=O)O)C(=O)N[C@@H](CCCCNC(=O)[C@@H](N)CCCCNC(=O)[C@@H](N)CCCCNC(=O)CC[C@H](NC(=O)CCCCCCCCCCCCCCCCCCC(=O)O)C(=O)O)C(=O)N[C@@H](CCC(N)=O)C(=O)N[C@@H](C)C(=O)N[C@@H](C)C(=O)N[C@@H](CCC(N)=O)C(=O)N[C@@H](CCC(=O)O)C(=O)N[C@@H](Cc1ccccc1)C(=O)N[C@H](C(=O)N[C@@H](CC(N)=O)C(=O)N[C@@H](Cc1c[nH]c2ccccc12)C(=O)N[C@@H](CC(C)C)C(=O)N[C@@H](CC(C)C)C(=O)N[C@@H](C)C(=O)NCC(=O)NCC(=O)N1CCC[C@H]1C(=O)N[C@@H](CO)C(=O)N[C@@H](CO)C(=O)NCC(=O)N[C@@H](C)C(=O)N1CCC[C@H]1C(=O)N1CCC[C@H]1C(=O)N1CCC[C@H]1C(=O)N[C@@H](CO)C(N)=O)C(C)C [Compound 1] (H-Y[Aib]EGTFTSDYSIYLEK([εLys-εLys-γGlu-C20 diacid])QAAQEFVNWLLAGGPSSGAPPPS-NH2) | 0.0028 | 0.173 | 0.0078 | 1.66
CC(C)C[C@H](NC(=O)[C@H](CC(C)C)NC(=O)[C@H](Cc1c[nH]c2ccccc12)NC(=O)[C@H](CC(N)=O)NC(=O)[C@@H](NC(=O)[C@H](Cc1ccccc1)NC(=O)[C@H](CCC(=O)O)NC(=O)[C@H](CCC(N)=O)NC(=O)[C@H](C)NC(=O)[C@H](C)NC(=O)[C@H](CCC(N)=O)NC(=O)[C@H](CCCCNC(=O)[C@@H](N)CCCCNC(=O)[C@@H](N)CCCCNC(=O)CC[C@H](NC(=O)CCCCCCCCCCCCCCCCCCC(=O)O)C(=O)O)NC(=O)[C@H](CCC(=O)O)NC(=O)[C@H](CC(C)C)NC(=O)[C@H](Cc1ccc(O)cc1)NC(=O)[C@H](Cc1ccc(O)cc1)NC(=O)[C@H](CO)NC(=O)[C@H](Cc1ccc(O)cc1)NC(=O)[C@H](CC(=O)O)NC(=O)[C@H](CO)NC(=O)[C@@H](NC(=O)[C@H](Cc1ccccc1)NC(=O)[C@@H](NC(=O)CNC(=O)[C@H](CCC(=O)O)NC(=O)C(C)(C)NC(=O)[C@@H](N)Cc1ccc(O)cc1)[C@@H](C)O)[C@@H](C)O)C(C)C)C(=O)N[C@@H](C)C(=O)NCC(=O)NCC(=O)N1CCC[C@H]1C(=O)N[C@@H](CO)C(=O)N[C@@H](CO)C(=O)NCC(=O)N[C@@H](C)C(=O)N1CCC[C@H]1C(=O)N1CCC[C@H]1C(=O)N1CCC[C@H]1C(=O)N[C@@H](CO)C(N)=O [Compound 2] (H-Y[Aib]EGTFTSDYSYYLEK([εLys-εLys-γGlu-C20 diacid])QAAQEFVNWLLAGGPSSGAPPPS-NH2) | 0.0038 | 0.275 | 0.006 | 0.9
CC(C)C[C@H](NC(=O)[C@H](CC(C)C)NC(=O)[C@H](Cc1c[nH]c2ccccc12)NC(=O)[C@H](CC(N)=O)NC(=O)[C@@H](NC(=O)[C@H](Cc1ccccc1)NC(=O)[C@H](CCC(=O)O)NC(=O)[C@H](CCC(N)=O)NC(=O)[C@H](C)NC(=O)[C@H](C)NC(=O)[C@H](CCC(N)=O)NC(=O)[C@H](CCCCNC(=O)[C@@H](N)CCCCNC(=O)[C@@H](N)CCCCNC(=O)CC[C@H](NC(=O)CCCCCCCCCCCCCCCCC(=O)O)C(=O)O)NC(=O)[C@H](CCC(=O)O)NC(=O)[C@H](CC(C)C)NC(=O)[C@H](Cc1ccc(O)cc1)NC(=O)[C@H](Cc1ccc(O)cc1)NC(=O)[C@H](CO)NC(=O)[C@H](Cc1ccc(O)cc1)NC(=O)[C@H](CC(=O)O)NC(=O)[C@H](CO)NC(=O)[C@@H](NC(=O)[C@H](Cc1ccccc1)NC(=O)[C@@H](NC(=O)CNC(=O)[C@H](CCC(=O)O)NC(=O)C(C)(C)NC(=O)[C@@H](N)Cc1ccc(O)cc1)[C@@H](C)O)[C@@H](C)O)C(C)C)C(=O)N[C@@H](C)C(=O)NCC(=O)NCC(=O)N1CCC[C@H]1C(=O)N[C@@H](CO)C(=O)N[C@@H](CO)C(=O)NCC(=O)N[C@@H](C)C(=O)N1CCC[C@H]1C(=O)N1CCC[C@H]1C(=O)N1CCC[C@H]1C(=O)N[C@@H](CO)C(N)=O [Compound 3] (H-Y[Aib]EGTFTSDYSYYLEK([εLys-εLys-γGlu-C18 diacid])QAAQEFVNWLLAGGPSSGAPPPS-NH2) | 0.0069 | 0.229 | 0.0085 | 0.626
CC[C@H](C)[C@H](NC(=O)[C@H](Cc1ccccc1)NC(=O)[C@H](CCC(=O)O)NC(=O)[C@H](CCCNC(=N)N)NC(=O)[C@H](C)NC(=O)[C@H](C)NC(=O)[C@H](CCC(N)=O)NC(=O)[C@H](CCCCNC(=O)[C@@H](N)CCCCNC(=O)[C@@H](N)CCCCNC(=O)CC[C@H](NC(=O)CCCCCCCCCCCCCCCCC(=O)O)C(=O)O)NC(=O)[C@H](CCC(=O)O)NC(=O)[C@H](CC(C)C)NC(=O)[C@H](Cc1ccc(O)cc1)NC(=O)[C@@H](NC(=O)[C@H](CO)NC(=O)[C@H](Cc1ccc(O)cc1)NC(=O)[C@H](CC(=O)O)NC(=O)[C@H](CO)NC(=O)[C@@H](NC(=O)[C@H](Cc1ccccc1)NC(=O)[C@@H](NC(=O)CNC(=O)[C@H](CCC(=O)O)NC(=O)[C@H](C)NC(=O)[C@@H](N)Cc1ccc(O)cc1)[C@@H](C)O)[C@@H](C)O)[C@@H](C)CC)C(=O)N[C@@H](CC(N)=O)C(=O)N[C@@H](Cc1c[nH]c2ccccc12)C(=O)N[C@@H](CC(C)C)C(=O)N[C@@H](CC(C)C)C(=O)N[C@@H](C)C(=O)NCC(=O)NCC(=O)N1CCC[C@H]1C(=O)N[C@@H](CO)C(=O)N[C@@H](CO)C(=O)NCC(=O)N[C@@H](C)C(=O)N1CCC[C@H]1C(=O)N1CCC[C@H]1C(=O)N1CCC[C@H]1C(=O)N[C@@H](CO)C(=O)O [Compound 17] (H-YAEGTFTSDYSIYLEK([εLys-εLys-γGlu-C18 diacid])QAAREFINWLLAGGPSSGAPPPS-OH) | 0.0349 | 1.32 | 0.0052 | 0.257
CC[C@H](C)[C@H](NC(=O)[C@H](Cc1ccccc1)NC(=O)[C@H](CCC(=O)O)NC(=O)[C@H](CCCNC(=N)N)NC(=O)[C@H](C)NC(=O)[C@H](C)NC(=O)[C@H](CCC(N)=O)NC(=O)[C@H](CCCCNC(=O)[C@@H](N)CCCCNC(=O)[C@@H](N)CCCCNC(=O)CC[C@H](NC(=O)CCCCCCCCCCCCCCCCC(=O)O)C(=O)O)NC(=O)[C@H](CCC(=O)O)NC(=O)[C@H](CC(C)C)NC(=O)[C@H](CC(C)C)NC(=O)[C@@H](NC(=O)[C@H](CO)NC(=O)[C@H](Cc1ccc(O)cc1)NC(=O)[C@H](CC(=O)O)NC(=O)[C@H](CO)NC(=O)[C@@H](NC(=O)[C@H](Cc1ccccc1)NC(=O)[C@@H](NC(=O)CNC(=O)[C@H](CCC(=O)O)NC(=O)C(C)(C)NC(=O)[C@@H](N)Cc1ccc(O)cc1)[C@@H](C)O)[C@@H](C)O)[C@@H](C)CC)C(=O)N[C@@H](CC(N)=O)C(=O)N[C@@H](Cc1c[nH]c2ccccc12)C(=O)N[C@@H](CC(C)C)C(=O)N[C@@H](CC(C)C)C(=O)N[C@@H](C)C(=O)NCC(=O)O [Compound 18] (H-Y[Aib]EGTFTSDYSILLEK([εLys-εLys-γGlu-C18 diacid])QAAREFINWLLAG-OH) | 0.0209 | 0.285 | 0.0197 | 0.226
